Experimental data taken from patent US5770382A, “Tricyclic retinoids, methods for their production and use” (Ligand Pharmaceuticals, Inc., priority 1995, dated 1998).

Columns and labels:
Format in all cases: cell-based
RARα = target: T1, RARα (Homo sapiens, UniProt P10276); test: Co-transfection assay, RARα agonist activity; details: CV-1 cells, 40 hours; read-out: RARα Pot (potency, EC50)
T1 construct: expressed in transfected cells; host or cells: CV-1 (African green monkey kidney fibroblasts)
T1 sequence (P10276 1-462): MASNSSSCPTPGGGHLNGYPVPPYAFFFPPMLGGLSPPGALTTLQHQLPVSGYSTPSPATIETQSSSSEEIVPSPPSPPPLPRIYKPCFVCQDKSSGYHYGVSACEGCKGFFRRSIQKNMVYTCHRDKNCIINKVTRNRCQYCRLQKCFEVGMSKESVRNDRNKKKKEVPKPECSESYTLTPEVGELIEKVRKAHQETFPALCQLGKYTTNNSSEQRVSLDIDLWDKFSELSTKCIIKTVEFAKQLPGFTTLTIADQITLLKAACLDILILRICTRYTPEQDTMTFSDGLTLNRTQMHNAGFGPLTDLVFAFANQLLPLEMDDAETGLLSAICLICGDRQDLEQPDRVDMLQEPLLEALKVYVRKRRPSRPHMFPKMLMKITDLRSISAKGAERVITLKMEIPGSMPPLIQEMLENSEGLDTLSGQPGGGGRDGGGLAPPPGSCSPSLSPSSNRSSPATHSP

RXRα = target: T2, RXRα (Homo sapiens, UniProt P19793); test: Co-transfection assay, RXRα agonist activity; details: CV-1 cells, 40 hours; read-out: RXRα Pot (potency, EC50)
T2 construct: expressed in transfected cells; host or cells: CV-1 (African green monkey kidney fibroblasts)
T2 sequence (P19793 1-462): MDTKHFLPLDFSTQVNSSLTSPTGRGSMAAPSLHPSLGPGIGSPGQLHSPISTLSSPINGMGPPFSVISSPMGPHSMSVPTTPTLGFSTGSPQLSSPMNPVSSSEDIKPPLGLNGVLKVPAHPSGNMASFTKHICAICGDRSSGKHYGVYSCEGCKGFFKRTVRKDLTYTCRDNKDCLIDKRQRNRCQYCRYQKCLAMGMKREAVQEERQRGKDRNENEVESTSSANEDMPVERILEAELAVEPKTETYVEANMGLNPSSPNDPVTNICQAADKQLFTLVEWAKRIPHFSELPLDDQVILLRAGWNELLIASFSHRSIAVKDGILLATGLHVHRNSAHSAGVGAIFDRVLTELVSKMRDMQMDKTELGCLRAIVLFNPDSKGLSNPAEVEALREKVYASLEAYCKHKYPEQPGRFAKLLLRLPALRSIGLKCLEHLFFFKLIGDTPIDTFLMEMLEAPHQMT

RXRγ = target: T3, RXRγ (Mus musculus, UniProt P28705); test: Co-transfection assay, RXRγ agonist activity; details: CV-1 cells, 40 hours; read-out: RXRγ Pot (potency, EC50)
T3 construct: expressed in transfected cells; host or cells: CV-1 (African green monkey kidney fibroblasts)
T3 sequence (P28705 1-463): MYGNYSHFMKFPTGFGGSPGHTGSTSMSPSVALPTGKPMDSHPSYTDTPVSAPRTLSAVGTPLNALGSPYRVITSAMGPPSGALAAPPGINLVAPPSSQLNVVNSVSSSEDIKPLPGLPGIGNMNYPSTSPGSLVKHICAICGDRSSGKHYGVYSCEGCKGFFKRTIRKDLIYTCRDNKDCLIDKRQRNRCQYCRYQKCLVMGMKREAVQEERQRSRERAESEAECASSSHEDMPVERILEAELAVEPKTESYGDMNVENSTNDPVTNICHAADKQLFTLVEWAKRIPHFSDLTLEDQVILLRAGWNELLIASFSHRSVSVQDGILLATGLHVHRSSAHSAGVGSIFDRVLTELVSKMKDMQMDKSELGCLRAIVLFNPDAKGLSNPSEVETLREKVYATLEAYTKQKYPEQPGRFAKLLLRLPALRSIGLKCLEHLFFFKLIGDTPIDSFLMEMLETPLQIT

- EC50 (RARα): > 10 µM
- EC50 (RXRα): 0.018 µM
- EC50 (RXRγ): 0.011 µM
Structure (SMILES): CC(/C=C/C=C1/CC(C)(C)Oc2cc3c(cc21)C(C)(C)CCC3(C)C)=C\C(=O)O [Compound 104b, (2E,4E)-3-Methyl-6-(2,3,6,7,8,9-hexahydro-2,2,6,6,9,9-hexamethylbenzo[b]-chromen-4-ylidene)-hexa-2,4-dienoic acid]
